# Laboratory results from paper PMC7876106 (Scientific Reports, 2021).
# Key:
# Type in all cases: binding
# antisense TERRA [1] = assay: FP assay, FITC labeled TRF2 peptide with antisense TERRA; conditions: 10 nM FITC peptide
# Protocol: (§1) All the nucleic acids, peptides and chemicals were dissolved in buffer containing 20 mM HEPES pH7.5, 150 mM salt (KCl, NaCl, LiCl) at the stock concentration of 1 mM. For peptide and nucleic acid interactions, 25μL of each nucleic acids with a sequential twofold dilutions starting from 50 μM was added into each well of 96-well plate followed by adding 25μL of 10 nM FITC labeled TRF2 peptide. For compounds and nucleic acid interactions, 20μL of each compounds with a sequential twofold dilutions starting from 50 μM were added into each well of 96-well plate followed by adding 5μL of 20 ng/mL tRNA and 25μL of 10 nM FAM labeled nucleic acids. For inhibition assay, 5μL FITC labeled TRF2 GAR peptide (10 nM final concentration) and 10 μL oligos (5 μM final concentration) were mixed, followed by adding 5μL of each compound with a sequential twofold dilutions starting from 50 μM into each well of 384-well plate. All components were mixed thoroughly, and the plate was incubated at room temperature for 1 h before placing in an Envision Plate Reader for reading at 495/520 nm. All data curves were fitted using Prism 8.0.
# TeloDNA = assay: FP assay, FITC labeled TRF2 peptide with TeloDNA; conditions: 10 nM FITC peptide, read-out: EC50 (affinity), peptide binding to TeloDNA
# Protocol: as §1
# antisense TeloDNA [2] = assay: FP assay, FITC labeled TRF2 peptide with antisense TeloDNA; conditions: 10 nM FITC peptide
# Protocol: as §1
# TERRA = assay: FP assay, FITC labeled TRF2 peptide with TERRA; conditions: 10 nM FITC peptide, read-out: EC50 (affinity), peptide binding to TERRA
# Protocol: as §1
# antisense TeloDNA [3] = assay: FP assay, full-length TRF2 protein with FAM labeled antisense TeloDNA; conditions: FAM labeled oligo
# antisense TERRA [4] = assay: FP assay, full-length TRF2 protein with FAM labeled antisense TERRA; conditions: FAM labeled oligo
EC50 (TeloDNA),EC50 (TERRA),Substance,peptide binding to antisense TERRA (antisense TERRA [1]),peptide binding to antisense TeloDNA (antisense TeloDNA [2]),full-length TRF2 affinity for antisense TeloDNA (antisense TeloDNA [3]),full-length TRF2 affinity for antisense TERRA (antisense TERRA [4])
8.9 µM,2.7 µM,"RAAGRRASRSSGRARRGRHEPGLGGPAERGAGEAR [TRF2 GAR, 35-residue peptide containing the GAR domain of TRF2]",Neither TRF2 GAR nor the Ala mutant showed any detectable binding,Neither TRF2 GAR nor the Ala mutant showed any detectable binding,,
,,full-length TRF2 protein: purified recombinant full-length TRF2 protein,,,lacks measurable affinity,lacks measurable affinity
